Data published in patent US20210353784A1, “DETECTING AND TREATING CANCERS USING CELL PENETRANT MTP53-OLIGOMERIZATION-DOMAIN PEPTIDE” (priority 2020, published 2021).
Like-named read-outs stand apart in the source and are kept apart here.

Tests used:
[1] = test system: MDA-MB-468 cells compared to MCF7 cells; conditions: 2 h
Procedure: FlowJo software was used to analyze the cytometric data.
The cellular uptake of Cy5p53Tet in these two cell lines was also measured using flow cytometry.
In Vitro Cy5p53Tet Cellular Uptake by Flow Cytometry. Fluorescence-activated cell-sorting (FACS) was used to determine the cellular uptake of Cy5p53Tet. MCF7 and MDA-MB-468 cells were seeded in six-well plates at a density of 5×10^5 cells/well and incubated at 37° C. overnight. On the following day, media were replaced with fresh media containing vehicle control or 100 or 500 nM Cy5p53Tet and further incubated at 37° C. for 2 h. Cells were washed two times with PBS and trypsinized at 37° C. for 5 min. Trypsin was neutralized by adding media, and the cell suspension was spun down. Cell pellets were washed with PBS and resuspended in PBS. FACS was performed on a FACScan (BD Biosciences), processing 2×10^4 events for each sample.

[2] = test system: MCF7 and MDA-MB-468 xenografts; assay: NIRF imaging of Cy5p53Tet in mice bearing bilateral MCF7/MDA-MB-468 xenografts (in vivo and ex vivo epifluorescence); conditions: in vivo, after intravenous administration, 10 nmol
Procedure: At 40, 80, and 180 min after injection, mice were sacrificed, and the xenografts were resected and imaged ex vivo (FIG. 2C).
NIRF Imaging of Cy5p53Tet in Mice Bearing Bilateral MCF7/MDA-MB-468 Xenografts. Female athymic nude mice (6-10 weeks old, 01B74-Athymic NCr-nu/nu;) were obtained from Charles River Laboratories. Animals were supplemented with 17β-estradiol with a dose of 0.72 mg/pellet (60-day release) into the neck 7 days before MCF7 cells were subcutaneous implanted. 5×10^6 cells/mouse MCF7 cells were suspended in 100 μL of 1:1 media/matrigel basement membrane matrix (Corning) and injected subcutaneously on the left flank of each mouse (n≥3/group). After 4 weeks, 5×10^6 cells/mouse MDA-MB-468 cells were subcutaneously implanted in the right flank of the mouse in 100 μL of 1:1 media/matrigel basement membrane matrix. Imaging experiments were performed when the tumors reached a volume of ˜50-250 mm^3 (after approximately 3 weeks). Cy5p53Tet (10 nmol) was injected into the tail vein of each mouse. Prior to in vivo imaging, the mice were anesthetized with 1.5-2.0% isoflurane (Baxter Healthcare). Images were collected using an IVIS Spectrum (Perkin Elmer) 12 min, 30 min, and 3 h following the administration of Cy5p53Tet. […] Fluorescence imaging was carried out with excitation and emission wavelengths of 640 and 680 nm, respectively. […]

[3] = test system: MDA-MB-468 cells compared to MCF7 cells; assay: Cy5p53Tet cellular uptake by live cell imaging (confocal, Nikon Element quantification); assay type: cell-based, Human; conditions: 500 nM, 2 h incubation; Nikon Element analysis
Procedure: Hoechst staining (blue) was used to stain the nuclei. Two independent experiments with biological replicates were performed.
FIG. 1D is a graph showing quantification of Cy5p53Tet uptake in MCF7 and MDA-MB-468 cells via Nikon Element analysis. At least 200 cells per sample were measured by fluorescence microscopy.
In vitro uptake, specificity, and toxicity assays were performed to gauge the potential of mtp53ODPs as imaging agents. Live cell imaging was performed to compare the ability of Cy5p53Tet to stain ER+MCF7 breast cancer cells that express wtp53 and MDA-MB-468 TNBC cells which express stable missense mtp53 R273H. Cy5p53Tet was anticipated to detect both wtp53 and mtp53, but because of the higher stability of mtp53, MDA-MB-468 cells were predicted to have a higher signal. The intensity of the Cy5p53Tet signal was clearly higher in the MDA-MB-468 cells compared to the MCF7 cells (FIG. 1B), a difference that correlated to the level of p53 expression as determined by Western blot (FIG. 1C). […] However, after a 2 h incubation with Cy5p53Tet, the colocalization was clearly evident with the Hoechst-stained DNA (Supplemental Illustration S3 in U.S. Provisional application 63/186,409).
Cy5p53Tet Cellular Uptake by Live Cell Imaging. Cells were seeded at 2×10^5 per well in a 12-well glass bottom plate 1 day before imaging (MatTek). […]

[4] = molecular target: T1, mtp53 (Homo sapiens, UniProt P04637, R273H); assay: Glutaraldehyde cross-link assay in MDA-MB-468 cell lysates; assay type: binding; conditions: in the presence of glutaraldehyde; cells treated 1.5 μM, 4 h; Cy5 channel
T1 construct: endogenous in cells; host or cells: MDA-MB-468
Source text: FIG. 4D illustrates Cy5p53Tet treated with glutaraldehyde without MDA-MB-468 cell lysate.
Wtp53 can form a tetramer, and its oligomerization regulates its transcriptional activity. Tetramerization is important for both wtp53 and mtp53, as both are preferentially degraded by MDM2 when present as dimers rather than tetramers. The oligomerization states of mtp53 were examined and the interactions were investigated by Cy5p53Tet and mtp53 using glutaraldehyde (GA) cross-linking assays (FIG. 4A to FIG. 4D). MDA-MB-468 cells were treated with vehicle or 1.5 μM of Cy5p53Tet for 4 h. Whole-cell lysates were cross-linked with glutaraldehyde concentrations of 0, 0.0025, or 0.005%, and the samples were analyzed by Western blot to detect p53 oligomerization forms (FIG. 4A). In cells without glutaraldehyde, monomers of mtp53 were detected; at 0.0025% glutaraldehyde, monomers, dimers, and tetramers were visible; and at 0.005% glutaraldehyde, the predominant form was tetramers. The presence of Cy5p53Tet-containing mtp53 polypeptides was evaluated using the Cy5 channel (FIG. 4B). Cy5p53Tet was detected at a low molecular weight: <12 kDa in the absence of glutaraldehyde (FIG. 4B, lane 4). […] As a control, the glutaraldehyde cross-linking of Cy5p53Tet was examined without mtp53 and found no such signal (FIG. 4D). […]

[5] = test system: WHIM6 and WHIM25 tumors; assay: Epifluorescence imaging (IVIS) of Cy5p53Tet uptake in bilateral PDX WHIM6/WHIM25 tumors; assay type: in vivo, NSG mice; conditions: 10 nmol tail vein
Procedure: In vivo optical imaging of Cy5p53Tet peptide uptake in bilateral PDX WHIM6/WHIM25 xenograft models. 2 million WHIM6 cells and WHIM25 cells were injected subcutaneously on the left and right shoulders of each mouse. 10 nmol Cy5p53Tet peptide was intravenously injected to each mouse when tumor size reached to 100-200 mm^3. At 1 hr, 2 hr and 3 hr post Cy5p53Tet peptide injection, the tumors were removed and the epifluorescence images were taken using an IVIS Spectrum. […] Cy5p53Tet peptide epifluorescence intensity quantification in WHIM6 and WHIM25 tumors was analyzed.
First, WHIM6/WHIM25 bilateral PDX tumor-bearing NSG mice were tail vein injected with 10 nmol of Cy5p53Tet peptide to study its delivery efficacy (FIG. 5A). Then, the WHIM6 and WHIM25 tumors were removed at 1, 2, and 3 hr post-injection. Uptake of the Cy5p53Tet peptide in WHIM6 and WHIM25 tumors was assessed on an in vivo epifluorecent imaging system (IVIS). […] The Cy5p53Tet peptide signal was investigated in PDX tumor tissue by extracting proteins from the WHIM6 and WHIM25 tumors post-injection with the Cy5p53Tet peptide at 1 hr, 2 hr, and 3 hr, and the Cy5p53Tet peptide effects were characterized in PDX models (FIG. 5B). Samples were run on 12% polyacrylamide gel and the Cy5p53Tet peptide accumulated in tumors was scanned at Cy5 channel and quantified. […]

[6] = test system: MDA-MB-468.shp53 cells; assay: Cy5p53Tet uptake in MDA-MB-468 shp53 cells with or without mtp53 depletion (live cell imaging); assay type: cell-based, Human; conditions: 500 nM

Substance: H-CysCy5-RKKRRQRRGEYFTLQIRGRERFEMFRELNEALELK-OH (N-terminal Cy5; Synthetic peptide based on p53 protein) [Cy5p53Tet]
- geometric MFI, mtp53-expressing MDA-MB-468 cells vs MCF7 cells ([1]; 100 nM): 1.58 fold
- geometric MFI, mtp53-expressing MDA-MB-468 cells vs MCF7 cells ([1]; 500 nM): 1.65 fold
- NIRF signal in MCF7 tumors [2]: no signal
- NIRF signal in MDA-MB-468 tumors [2]: clearly observed
- uptake of the mtp53ODP in MDA-MB-468 cells compared to MCF7 cells [3]: twofold higher
- molecular weight at which Cy5p53Tet was observed [4]: > 225 kDa
- Cy5 fluorescence signal in the tumor site of WHIM6 compared to WHIM25 [5]: higher
- reduction of the Cy5p53Tet signal upon mtp53 depletion (relative ROI intensity) ([6]; 30 min): 61%
- reduction of the Cy5p53Tet signal upon mtp53 depletion (relative ROI intensity) ([6]; 2 h): 63%
- reduction of the Cy5p53Tet signal upon mtp53 depletion (relative ROI intensity) ([6]; 4 h): 67%
- difference of Cy5p53Tet signal between knockdown and control cells ([6]; 24 h): no statistically significant difference
